Measurements as given in the NIST ThermoML archive (doi:10.1016/j.fluid.2005.11.026).
Values joined by “and” are separate entries in the source; they are usually repeats but may differ in a detail not shown here. Identical values can stand only once. ± gives the expanded uncertainty stated by the source.

Conditions: 313.15 K; Liquid; Closed cell (Static) method

SMILES	vapor or sublimation pressure
C1CCCCC1 [cyclohexane]	24.62 ± 0.096 kPa
Cc1ccccc1 [toluene]	7.881 ± 0.041 kPa and 7.888 ± 0.041 kPa and 7.889 ± 0.041 kPa
